Laboratory results taken from patent US20070203233A1, “NOVEL 2-(alpha-N-PENTANONYL)BENZOATES, THEIR PREPARATION AND USE” (priority 2004, published 2007).
Marks after values point to notes of the source that are not given here.

Tests used:
[1] = tested on: model rats of middle cerebral artery thrombosis (MCAT); test: Effects on neural symptoms of MCAT rats; assay type: in vivo, SD rats; design: key to Scores 6 hours / Scores 24 hours: 0/1 per test, summed (max 4); higher = more severe behavioral disorder; settings: for Scores 6 hours: behavioral score 6 h after operation (full mark 4); for Scores 24 hours: behavioral score 24 h after operation (full mark 4); for % inhibition at hour 24: vs. model group
Protocol: (1) Grouping and administration: […] Preventive administration was conducted by gavage one time per day for 3 days prior to the model being established. The model was established on day 4, and a dosage of one day was administered by gavage immediately after the model was established. Another dosage of one day was again administered by gavage 12 hours after the model was established. Equivalent amount of the vehicle was administered to the control group. […] Description of technique and early neuropathological consequences following middle cerebral artery occlusion. J Cereb Blood Flow Metab, 1981, 1: 53), and fixed in lateral decubitus position. A bowtype incision of 1.5 cm long was made at the midpoint between canthus and exterior auditory canal. Temporalis was broken and incised to expose temporal bone. […] The filter paper was removed after 30 min when the vascular became black. The localized tissue was washed with physiological brine, and sutured layer by layer. Then rats were placed back into the cages. By following the modified method of Bederson et al. […] (2) The animals were placed onto a smooth ground, and the resistance of contralateral shoulder to push was examined. “0” was recorded if the resistance of both shoulders were equal and strong; and “1” was recorded if the resistance of contralateral shoulder to push was decreased. […] (4) The tail of the rat was lifted 30 cm high away from the ground, and “1” was recorded if the animals ceaselessly circled contralaterally. “4” was full mark in accordance with the above-mentioned standard. The higher the score was, more severe the behavioral disorder of the animal was. 4. Results: The behavioral scores in each group were compared by student t test.

[2] = viscous liquid; cited from earlier work
[3] = tested on: model rats of middle cerebral artery thrombosis (MCAT); test: Effects on cerebral infarct area of MCAT rats; assay type: in vivo, SD rats; settings: for Cerebral infarct tissue weight/total brain weight (%): 24 h after operation, TTC staining; for Inhibition (%): cerebral infarct vs. model group
[4] = in vivo; settings: both, ICR, mouse, po
[5] = tested on: thrombus of artery-vein bypass in rats; test: Effects on thrombosis of artery-vein bypass in rats; assay type: in vivo, SD rats; settings: for Dry-weight of thrombus / Wet-weight of thrombus: once per day for 3 days; for Inhibition (%) of dry-weight of thrombus / Inhibition (%) of wet-weight of thrombus: vs. thrombus model group
Protocol: Testing methods are described in Chen-Qi, “Methodology for Pharmacological Research of Chinese Medicine”,People's Medical Publishing House, Sep. 1993, 1st ed., page 510. […] Equivalent amount of the vehicle was administered to the thrombus model group. The operation was conducted immediately after the final administration. […] The operation was conducted to separate the right common carotid artery and the left external jugular vein. A pre-weighed suture # 0 of 8 cm long was placed into the middle part of a polyethylene tube of 10 cm long. Then the tube was filled with normal saline, and connected at both ends to the cannula of 3 cm long filled with normal saline. One end of the tube was inserted into the left external jugular vein, and another end was inserted into the right common carotid artery. The blood flowed from the right common carotid artery to the polyethylene tube, and then flow back to the left external jugular vein, so as to construct a bypass circulation. […] The wet-weight of the thrombus was obtained by subtracting the weight of the suture and the paper from this total wet weight. […] The thrombus was taken out and weighed to obtain a total dry weight. The dry weight of the thrombus was obtained by subtracting the weight of the suture and the paper form this total dry weight. The results in each group were compared by student's t test. […] Testing Results

[6] = The Stability to Light; assay type: physicochemical; settings: 10 days, HPLC
[7] = Thermal Stability; assay type: physicochemical; settings: 60° C., 10 days, HPLC

Structure (SMILES) | Scores 6 hours ([1]; 50 mg/kg by gavage) | Scores 24 hours ([1]; 50 mg/kg by gavage) | Scores 6 hours ([1]; 100 mg/kg by gavage) | Scores 24 hours ([1]; 100 mg/kg by gavage) | Scores 6 hours ([1]; 200 mg/kg by gavage) | Scores 24 hours ([1]; 200 mg/kg by gavage) | Cerebral infarct tissue weight/total brain weight (%) ([3]; 50 mg/kg by gavage) | Inhibition (%) ([3]; 50 mg/kg by gavage) | Cerebral infarct tissue weight/total brain weight (%) ([3]; 100 mg/kg by gavage) | Inhibition (%) ([3]; 100 mg/kg by gavage) | Cerebral infarct tissue weight/total brain weight (%) ([3]; 200 mg/kg by gavage) | Inhibition (%) ([3]; 200 mg/kg by gavage) | further results
CCCCC1OC(=O)c2ccccc21 (racemic) [DL-3-n-butylphthalide] | 3.36 ± 0.81 | 3.09 ± 0.54 | 3.36 ± 0.50 | 3.09 ± 0.70 | 3.36 ± 0.67 | 3.00 ± 0.89 | 5.66 ± 2.81 | 23.62 | 5.81 ± 1.49 | 26.83 | 5.52 ± 1.78 | 27.46 | % inhibition at hour 24 ([1]; 50 mg/kg by gavage): 15.11%; % inhibition at hour 24 ([1]; 100 mg/kg by gavage): 17.16%; % inhibition at hour 24 ([1]; 200 mg/kg by gavage): 19.57%; solubility in water (in words) [2]: insoluble in water
CCCCC(=O)c1ccccc1C(=O)O [Calcium 2-(α-n-pentanonyl)benzoate, calcium 2-(α-n-pentanonyl)benzoate] | 3.18 ± 0.60 | 2.73 ± 0.65**^,s | 3.40 ± 0.52 | 2.90 ± 0.57 | 3.27 ± 0.79 | 2.45 ± 0.82 | 5.01 ± 1.79 | 32.39 | 5.23 ± 2.04 | 34.13 | 4.65 ± 2.13 | 38.90 | LD50 at 7 days [4]: 2680 mg/kg; Dry-weight of thrombus ([5]; 50 mg/kg by gavage): 40.2 ± 18.0 mg; Wet-weight of thrombus ([5]; 50 mg/kg by gavage): 199.8 ± 30.4 mg; Inhibition (%) of dry-weight of thrombus ([5]; 50 mg/kg by gavage): 21.64%; Inhibition (%) of wet-weight of thrombus ([5]; 50 mg/kg by gavage): 22.92%; Dry-weight of thrombus ([5]; 100 mg/kg by gavage): 34.2 ± 13.1 mg; Wet-weight of thrombus ([5]; 100 mg/kg by gavage): 189.8 ± 52.3 mg; Inhibition (%) of dry-weight of thrombus ([5]; 100 mg/kg by gavage): 33.33%; Inhibition (%) of wet-weight of thrombus ([5]; 100 mg/kg by gavage): 26.77%; Dry-weight of thrombus ([5]; 200 mg/kg by gavage): 30.4 ± 13.9 mg; Wet-weight of thrombus ([5]; 200 mg/kg by gavage): 163.2 ± 64.4 mg; Inhibition (%) of dry-weight of thrombus ([5]; 200 mg/kg by gavage): 40.74%; Inhibition (%) of wet-weight of thrombus ([5]; 200 mg/kg by gavage): 37.04%; decomposed product detected, stability to light (in words) [6]: no decomposed product; decomposed product detected, thermal stability (in words) [7]: no decomposed product; cerebral infarct as compared with the model group (in words) ([3]; 50 mg/kg, P<0.05): significantly reduced
